The record followed here is patent US9090593B2, “Bicyclic compounds as Pim inhibitors” (AMGEN INC., priority 2010, dated 2015).

The target of test [1] is T1, full length recombinant Pim-1 protein (Homo sapiens, UniProt P11309).
T1 construct: by full length recombinant Pim-1, Pim-2, or Pim-3 protein; hexahistidine tag followed by a thrombin cleavage site (N); made in house; host or cells: Sf9 (baculovirus) or E. coli (pET28)
Put plainly: Pim-1 enzyme assay (HTRF, phosphorylation of biotinylated-BAD (S112) peptide). The note with it: read-out: Pim_1_IC50. The format is biochemical. An excerpt: (§1) These cDNAs were used as templates in PCR reactions to produce full-length DNA clones of the PIMs. […] PCR products were digested with […] and EcoRI for Pim-1 and BamHI and EcoRI for Pim-2 and ligated into a modified baculovirus transfer vector (pFastBac1) cleaved with BamHI and EcoRI. For bacterial expression, the same cleaved PCR products encoding Pim-1 or Pim-2 were ligated into a modified E. coli expression vector pET28(a) cleaved with BamHI and EcoRI Amino-terminal hexahistidine tags followed by a thrombin cleavage site were previously added to the vectors using standard methods of molecular biology. Recombinant baculoviruses expressing Pim-1 or Pim-2 were made using standard methods (Fastbac manual, Invitrogen, Carlsbad, Calif.). Infection of Sf9 cells was done at an m.o.i. of greater than 5 for 24-48 h. Cells were harvested by centrifugation and frozen at −80 C. For E. coli expression, cells carrying pET28-His6-Th-Pim-1 or pET28-His6-Th-Pim-2 were picked from a single colony and grown o/n in LB media. The o/n culture was used to inoculate a 2 liter flask with 500 mL media. This was grown o/n and used to inoculate 15-20 liters of Terrific Broth in a New Brunswick Scientific fermentor. The E. coli were grown at 37° C. to and OD600>1.6. The temperature was dropped to 18° C. and o/n expression was induced with 0.5 mM IPTG. Cells were harvested by centrifugation and frozen at −80° C.
(§2) This step was repeated 3× and the resin was transferred to a 2.5 cm glass column. Ten column volumes of wash buffer (0.05 M HEPES, pH 8.0, 0.1 M NaCl, 0.01 M 2-mercaptoethanol, 10% (w/v) glycerol) were applied to the resin followed by 10 column volumes of elution buffer (0.05 M HEPES, pH 8.0, 0.25 M NaCl, 0.01 M 2-mercaptoethanol, 10% (w/v) glycerol, 0.1 M imidazole). Fractions were analyzed by SDS-PAGE and those containing the protein of interest were pooled and concentrated. The concentrated protein was applied to an Amersham Superdex 75 (XK 26/60) column equilibrated in 0.025 M Tris-HCl, pH 7.5, 0.1 M NaCl, 0.01 M 2-mercaptoethanol, 10% (w/v) glycerol. […] Fractions containing the monomeric protein of interest were pooled, concentrated to ˜2 mg/mL, and stored at −80° C.
(§3) The phosphorylation of biotinylated-BAD (S112) peptide by full length recombinant Pim-1, Pim-2, or Pim-3 protein was detected with streptavidin:Allophycocyanin (APC) conjugate and a europium (Eu) labeled antibody directed against phosphorylated-BAD (S112). […] The fluorescence is directly proportional to the amount of phosphorylated BAD peptide present in the reaction.
(§4) A reference compound was included on each assay plate in order to validate that plate; on one plate of every assay run, two additional reference compounds were included.
(§5) The final buffer conditions were as follows: 60 mM Hepes, pH 7.0, 0.05% BSA, 2 mM DTT. […] The reaction was stopped by the addition of 3 mM EDTA, and fluorescence was measured by an HTRF® Rubystar microplate reader. For each plate, percent of control (POC) values were calculated for each well. Values for the IC50 IP were estimated using a standard 4-parameter logistic model.

Test [2] has as its target T2, full length recombinant Pim-2 protein (Homo sapiens, UniProt Q9P1W9).
T2 construct: by full length recombinant Pim-1, Pim-2, or Pim-3 protein; hexahistidine tag followed by a thrombin cleavage site (N); made in house; host or cells: Sf9 (baculovirus) or E. coli (pET28)
Put plainly: Pim-2 enzyme assay (HTRF, phosphorylation of biotinylated-BAD (S112) peptide). It is filed as biochemical. The note with it: read-out: Pim2_IC50.
Description: as §1, §2, §3, §4, §5
(In general: In TR-FRET formats the signal depends on donor and acceptor labels being close together.)

Molecules are shown by their SMILES.

T1 sequence (P11309 whole entry): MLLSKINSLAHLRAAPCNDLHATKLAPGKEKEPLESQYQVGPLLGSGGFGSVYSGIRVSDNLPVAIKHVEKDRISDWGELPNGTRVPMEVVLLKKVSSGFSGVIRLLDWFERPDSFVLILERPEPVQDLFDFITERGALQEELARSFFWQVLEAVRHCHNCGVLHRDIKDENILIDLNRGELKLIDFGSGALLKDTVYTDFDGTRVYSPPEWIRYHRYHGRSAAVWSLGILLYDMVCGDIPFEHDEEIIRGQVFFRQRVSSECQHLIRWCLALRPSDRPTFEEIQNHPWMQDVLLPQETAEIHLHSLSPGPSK
T2 sequence (Q9P1W9 whole entry): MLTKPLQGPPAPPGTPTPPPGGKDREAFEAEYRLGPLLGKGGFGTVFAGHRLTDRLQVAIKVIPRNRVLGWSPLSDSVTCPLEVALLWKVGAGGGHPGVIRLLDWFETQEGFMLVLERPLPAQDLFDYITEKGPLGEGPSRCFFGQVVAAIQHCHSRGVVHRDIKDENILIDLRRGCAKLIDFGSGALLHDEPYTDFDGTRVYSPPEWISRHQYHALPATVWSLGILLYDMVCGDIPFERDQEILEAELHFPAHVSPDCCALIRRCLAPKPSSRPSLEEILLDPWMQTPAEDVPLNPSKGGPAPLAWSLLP

Turning to `CC1CCCCN1c1nc(-c2ccc3[nH]cc(-c4cncc(O[C@@H]5CCCNC5)n4)c3c2)cs1` (mixture of isomers) [Example 303], the figures for the IC50 in test [1] and in test [2] were 158 nM and 733 nM, respectively.

As to `CC1CCCN(c2cnc(-c3ccc4[nH]cc(-c5cncc(O[C@@H]6CCCNC6)n5)c4c3)cn2)C1` (mixture of isomers) [Example 306], the IC50 in test [1] is 23 nM; in test [2] it was 93 nM.

As to `O[C@@H]1CN(c2cncc(-c3n[nH]c4ccc(-c5c(F)cccc5F)cc34)n2)CC[C@@H]1O` (single isomer, unassigned) [Example 249, cis-1-(6-(5-(2,6-difluorophenyl)-1H-indazol-3-yl)-2-pyrazinyl)-3,4-piperidinediol], the IC50 in test [1] was 32 nM; in test [2] it was 269 nM.

As to `O[C@@H]1CN(c2cncc(-c3n[nH]c4ccc(-c5c(F)cccc5F)cc34)n2)CC[C@@H]1O` (single isomer, unassigned) [Example 250, cis-1-(6-(5-(2,6-difluorophenyl)-1H-indazol-3-yl)-2-pyrazinyl)-3,4-piperidinediol], the IC50 in test [1] was 46 nM; in test [2], 309 nM.

With `Fc1cccc(F)c1-c1ccc2[nH]nc(-c3cncc(CC4CCCNC4)n3)c2c1` (single isomer, unassigned) [Example 273, 5-(2,6-difluorophenyl)-3-(6-(3-piperidinylmethyl)-2-pyrazinyl)-1H-indazole], the figures for the IC50 in test [1] and in test [2] were 70 nM and 287 nM, respectively.

With `Fc1cccc(F)c1-c1ccc2[nH]nc(-c3cncc(CC4CCCNC4)n3)c2c1` (single isomer, unassigned) [Example 274, 5-(2,6-difluorophenyl)-3-(6-(3-piperidinylmethyl)-2-pyrazinyl)-1H-indazole], the values for the IC50 in test [1] and in test [2] were 20 nM and 90 nM, respectively.

On to `CC(C)C1CCNCC1Oc1cncc(-c2n[nH]c3ccc(-c4c(F)cccc4F)cc23)n1` (single isomer, unassigned) [Example 394], for which the IC50 in test [1] was found to be 30 nM; in test [2], 203 nM.

Take `Fc1cccc(F)c1-c1ccc2[nH]nc(-c3cncc(SC4CCCNC4)n3)c2c1` (single isomer, unassigned) [Example 415]: the IC50 in test [1] came to 28 nM; in test [2] it was 76 nM.

With `Fc1cccc(F)c1-c1ccc2[nH]nc(-c3cncc(OC4C=CCNC4)n3)c2c1` (single isomer, unassigned) [Example 426], the results for the IC50 in test [1] and in test [2] were 105 nM and 174 nM, respectively.

In the case of `Fc1cccc(F)c1-c1ccc2[nH]nc(-c3cncc(OC4CCNCC45CC5)n3)c2c1` (single isomer, unassigned) [Example 429], the figures for the IC50 in test [1] and in test [2] were 30 nM and 76 nM, respectively.

Consider `Fc1cccc(F)c1-c1ccc2[nH]cc(-c3cncc(OC4CNCCC45CC5)n3)c2c1` (single isomer, unassigned) [Example 439], for which the figures for the IC50 in test [1] and in test [2] were 159 nM and 407 nM, respectively.

As for `CC1CNCC(Oc2cncc(-c3n[nH]c4ccc(-c5c(F)cccc5F)cc34)n2)C1` (single isomer, unassigned) [Example 468], the IC50 stood at 70 nM in test [1] and 196 nM in test [2].

As to `Fc1cccc(F)c1-c1ccc2[nH]nc(-c3cncc(Oc4cccnc4)n3)c2c1` [Example 246, 5-(2,6-difluorophenyl)-3-(6-(3-pyridinyloxy)-2-pyrazinyl)-1H-indazole], the IC50 was found to be 551 nM in test [1] and 798 nM in test [2].

Regarding `c1ccc(Nc2ccc3[nH]nc(-c4cncc(O[C@H]5CNCCC56CC6)n4)c3c2)cc1` [Example 251, 3-(6-((4R)-6-azaspiro[25]oct-4-yloxy)-2-pyrazinyl)-N-phenyl-1H-indazol-5-amine bis(2,2,2-trifluoroacetate)], the values for the IC50 in test [1] and in test [2] were 4 nM and 39 nM, respectively.

For the compound `c1cnc(N2CCOCC2)c(-c2ccc3[nH]cc(-c4cncc(O[C@@H]5CCCNC5)n4)c3c2)c1` [Example 338], the IC50 in test [1] was 69 nM.

As to `CC(C)Oc1cncc(-c2ccc3[nH]cc(-c4nnc(N5CCC[C@@H](N)C5)o4)c3c2)n1` [Example 525], in test [1], the IC50 is 70 nM.
